≈ marks a conversion by molar mass, not a printed value. Counter-ions that a name gives are not always drawn. Like-named read-outs stand apart in the source and are kept apart here.
What was measured:
[1] = Solubility test by UV-Vis spectroscopy of saturated solutions; format: physicochemical; settings: solvent DMSO
[2] = as above; format: physicochemical; settings: saturated solution; for solubility: thermodynamic from solid
Description: All UV-Vis measurements were carried out with an Agilent Cary 60 UV-Vis 2.00 between 800-200 nm. The absorbance was measured with a scan rate of 300.0 nm/min, a data interval of 0.50 nm and an UV-Vis Average Time of 0.10 s. For all measurements a cuvette with 10 mm light path was used. A calibration curve was plotted from several different concentrations and the solubility of the respective compound was determined by measuring the absorbance of a diluted saturated solution. As a blank curve a mixture of ultrapure water and ethanol in a ratio of 1:1 or 5:95 was recorded. For the calibration curve a 100 μM or a 10 μM solution of the compound in an ultrapure water:ethanol (1:1) or (5:95)-mixture was prepared and diluted to obtain at least 6 concentrations. […] The supernatant was taken using a syringe and filtered through a syringe filter (RC Membrane). The saturated solution was diluted with ultrapure water and ethanol to obtain an appropriate concentration in a water:ethanol (1:1) or (5:95)-mixture. The long wave absorbance maximum was used for determination of the solubility (mean values, determination in triplicate). […] By plotting the concentration of the solution against the absorbance values at the previously determined wavelength maximum a calibration curve was obtained (FIG. 1B).

[3] = test system: subcutaneous MV4-11 CDX model; experiment: In vivo efficacy study in subcutaneous MV4-11 CDX model in NOD/SCID mice; settings: 50 mg/kg po daily 5 days
human FLT3-ITD = biological target: T1, human FLT3-ITD (Homo sapiens, UniProt P36888); experiment: Enzymatic kinase assay FLT3 (ITD), 10-dose IC50 mode (Reaction Biology); format: biochemical
T1 sequence (P36888 1-993): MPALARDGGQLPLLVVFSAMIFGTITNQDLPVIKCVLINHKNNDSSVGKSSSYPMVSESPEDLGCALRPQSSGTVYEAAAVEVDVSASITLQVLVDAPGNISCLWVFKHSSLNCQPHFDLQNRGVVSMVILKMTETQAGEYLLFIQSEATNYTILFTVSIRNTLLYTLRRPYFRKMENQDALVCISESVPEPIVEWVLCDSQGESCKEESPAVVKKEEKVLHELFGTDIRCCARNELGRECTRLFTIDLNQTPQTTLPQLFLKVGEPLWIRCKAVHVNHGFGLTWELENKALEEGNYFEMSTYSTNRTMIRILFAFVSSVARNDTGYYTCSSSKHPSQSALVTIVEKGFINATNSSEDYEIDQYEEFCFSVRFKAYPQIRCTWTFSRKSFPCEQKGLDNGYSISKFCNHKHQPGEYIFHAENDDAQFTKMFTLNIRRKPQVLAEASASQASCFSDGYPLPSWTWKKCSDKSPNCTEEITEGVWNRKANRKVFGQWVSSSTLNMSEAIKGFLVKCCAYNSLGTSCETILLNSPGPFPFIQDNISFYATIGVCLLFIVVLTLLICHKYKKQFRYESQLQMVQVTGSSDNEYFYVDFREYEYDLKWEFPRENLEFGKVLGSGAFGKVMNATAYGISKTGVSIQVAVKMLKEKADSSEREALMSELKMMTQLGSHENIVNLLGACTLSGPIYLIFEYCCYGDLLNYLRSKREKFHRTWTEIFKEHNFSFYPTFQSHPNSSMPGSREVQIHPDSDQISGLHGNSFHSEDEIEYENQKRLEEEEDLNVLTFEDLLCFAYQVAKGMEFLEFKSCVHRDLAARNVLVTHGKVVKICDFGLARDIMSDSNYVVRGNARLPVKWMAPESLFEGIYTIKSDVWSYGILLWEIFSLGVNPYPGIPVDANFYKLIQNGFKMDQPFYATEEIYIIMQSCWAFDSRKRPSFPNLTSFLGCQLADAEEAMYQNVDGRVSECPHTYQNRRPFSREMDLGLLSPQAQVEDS

[4] = ethanol, organic solvent or mixture, ethanol, read-out: Solubility Ethanol
[5] = ultrapure water, water, ultrapure water, read-out: Solubility Water
[6] = read-out: IC50 FLT3 (ITD); 10 μM ATP
[7] = 10 μM ATP; read-out: IC50 FLT3 (ITD)
[8] = ethanol, 2,2,2-trifluoroacetate

For `CC(C)(C)c1cc(NC(=O)Nc2ccc3oc(C(=O)c4cc5c(CN6CCOCC6)c(O)ccc5[nH]4)cc3c2)no1` [Compound 30b, 1-(5-(tert-Butyl)isoxazol-3-yl)-3-(2-(5-hydroxy-4-(morpholinomethyl)-1H-indole-2-carbonyl)benzofuran-5-yl)urea 2,2,2-trifluoroacetate], which “Solubility DMSO” value [1] is on record?
Its value is “Soluble”.

And the solubility [2, 4]?
Its solubility is 2570 µg/mL (≈ 4610 µM).

What about the solubility [2, 5] of the same compound?
Its solubility is 140 µg/mL (≈ 251 µM).

What does the source list for `CO[C@@H]1[C@H](N(C)C(=O)c2ccccc2)C[C@H]2O[C@]1(C)n1c3ccccc3c3c4c(c5c6ccccc6n2c5c31)C(=O)NC4` [Midostaurin, reference compound]?
first death(s) (day of study) [3]: 520000 s; second death (day of study) [3]: 9 days; number of living subjects, day of study 5 ([3]; 5 mice): 5; number of living subjects, day of study 6 ([3]; 5 mice): 4; number of living subjects, day of study 8 ([3]; 5 mice): 4; number of living subjects, day of study 13 ([3]; 5 mice): 3; number of living subjects, day of study 26 ([3]; 5 mice): 3; number of living subjects, day of study 36 ([3]; 5 mice): 0

For `CC(C)(C)c1cc(NC(=O)Nc2ccc3oc(C(=O)c4cc5c(CN6CCCCC6)c(OC(=O)N6CCC(N7CCCCC7)CC6)ccc5[nH]4)cc3c2)no1` [Compound 39a, 2-(5-(3-(5-(tert-Butyl)isoxazol-3-yl)ureido)benzofuran-2-carbonyl)-4-(piperidin-1-ylmethyl)-1H-indol-5-yl [1,4′-bipiperidine]-1′-carboxylate], which IC50 (human FLT3-ITD; [6]) is on record?
The IC50 was 1.14 nM.

And the solubility [2, 4]?
Its solubility is 1590 µg/mL (≈ 2120 µM).

And the solubility [2, 5]?
The solubility was < 100 µg/mL.

Which “Solubility DMSO” value [1] does the source give for `CCN1CCN(Cc2c(O)ccc3[nH]c(C(=O)c4cc5cc(NC(=O)Nc6cc(C(C)(C)C)on6)ccc5o4)cc23)CC1` [Compound 69b] here?
The value was “Soluble”.

What about the “Solubility Ethanol” value ([2]; ethanol) of the same compound?
Its value is 4410 µg/mL (≈ 7540 µM).

What about the “Solubility Water” value ([2]; ultrapure water) of the same compound?
The value was 100 µg/mL (≈ 171 µM).

With `CC(C)(C)c1cc(NC(=O)Nc2ccc3oc(C(=O)c4cc5c(CN6CCOCC6)c(O)ccc5[nH]4)cc3c2)no1` [Compound 30c, 1-(5-(tert-Butyl)isoxazol-3-yl)-3-(2-(5-hydroxy-4-(morpholinomethyl)-1H-indole-2-carbonyl)benzofuran-5-yl)urea hydrochloride] as the compound, how does the IC50 (human FLT3-ITD; [7]) read?
The IC50 was 2 nM.

For `CN(C)Cc1c(O)ccc2[nH]c(C(=O)c3cc4cc(NC(=O)Nc5cc(C(C)(C)C)on5)ccc4o3)cc12` [Compound 34a, 1-(5-tert-Butylisoxazol-3-yl)-3-(2-(4-((dimethylamino)methyl)-5-hydroxy-1H-indole-2-carbonyl)benzofuran-5-yl)urea], which IC50 (human FLT3-ITD; [7]) is on record?
The IC50 was 1.51 nM.

For `CC(C)(C)c1cc(NC(=O)Nc2ccc3oc(C(=O)c4cc5c(CN6CCCC6)c(OC(=O)N6CCC(N7CCCCC7)CC6)ccc5[nH]4)cc3c2)no1` [Compound 40a, 2-(5-(3-(5-(tert-Butyl)isoxazol-3-yl)ureido)benzofuran-2-carbonyl)-4-(pyrrolidin-1-ylmethyl)-1H-indol-5-yl [1,4′-bipiperidine]-1′-carboxylate], which IC50 (human FLT3-ITD; [6]) is on record?
Its IC50 is 1.15 nM.

And the solubility [2, 4]?
Its solubility is 1240 µg/mL (≈ 1690 µM).

And the solubility [2, 5]?
The solubility was < 100 µg/mL.

Which IC50 (human FLT3-ITD; read-out: IC50 FLT3 (ITD); 10 μM ATP; Dihydrochloride) does the source give for `CC(C)(C)c1cc(NC(=O)Nc2ccc3oc(C(=O)c4cc5c(CN6CCOCC6)c(OC(=O)N6CCC(N7CCCCC7)CC6)ccc5[nH]4)cc3c2)no1` [Compound 38c, 2-(5-(3-(5-(tert-Butyl)isoxazol-3-yl)ureido)benzofuran-2-carbonyl)-4-(morpholinomethyl)-1H-indol-5-yl [1,4′-bipiperidine]-1′-carboxylate Dihydrochloride] here?
The IC50 was 1.51 nM.

What does the source list for `CC(C)(C)c1cc(NC(=O)Nc2ccc3oc(C(=O)c4cc5c(CN6CCCC6)c(O)ccc5[nH]4)cc3c2)no1` [Compound 32a, 1-(5-(tert-Butyl)isoxazol-3-yl)-3-(2-(5-hydroxy-4-(pyrrolidin-1-ylmethyl)-1H-indole-2-carbonyl)benzofuran-5-yl)urea]?
Solubility DMSO [1]: Soluble; Solubility Ethanol ([2]; ethanol): 910 µg/mL (≈ 1680 µM); solubility [2, 5]: < 100 µg/mL

Which “Solubility DMSO” value [1] does the source give for `CC(C)(C)OC(=O)N1CCN(Cc2c(O)ccc3[nH]c(C(=O)c4cc5cc(NC(=O)Nc6cc(C(C)(C)C)on6)ccc5o4)cc23)CC1` [Compound 54a] here?
The value was “Soluble”.

And the solubility [2, 4]?
The solubility was 900 µg/mL (≈ 1370 µM).

What about the solubility [2, 5] of the same compound?
Its solubility is < 100 µg/mL.

For `CC(C)N1CCN(Cc2c(O)ccc3[nH]c(C(=O)c4cc5cc(NC(=O)Nc6cc(C(C)(C)C)on6)ccc5o4)cc23)CC1` [Compound 70b, 1-(5-(tert-Butyl)isoxazol-3-yl)-3-(2-(5-hydroxy-4-((4-isopropylpiperazin-1-yl)methyl)-1H-indole-2-carbonyl)benzofuran-5-yl)urea bis(2,2,2-trifluoroacetate)], which “Solubility Ethanol” value ([2]; ethanol, bis(2,2,2-trifluoroacetate)) is on record?
The value was 1820 µg/mL (≈ 3040 µM).

And the “Solubility Water” value ([2]; ultrapure water, bis(2,2,2-trifluoroacetate))?
Its value is 370 µg/mL (≈ 618 µM).

For `CC(C)(C)c1cc(NC(=O)Nc2ccc3oc(C(=O)c4cc5c(CN6CCCCC6)c(O)ccc5[nH]4)cc3c2)no1` [Compound 31b, 1-(5-(tert-Butyl)isoxazol-3-yl)-3-(2-(5-hydroxy-4-(piperidin-1-ylmethyl)-1H-indole-2-carbonyl)benzofuran-5-yl)urea 2,2,2-trifluoroacetate], which “Solubility Ethanol” value [2, 8] is on record?
Its value is 1890 µg/mL (≈ 3400 µM).

Which “Solubility DMSO” value [1] does the source give for `CC(C)(C)c1cc(NC(=O)Nc2ccc3oc(C(=O)c4cc5c(CN6CCCCC6)c(O)ccc5[nH]4)cc3c2)no1` [Compound 31a, 1-(5-(tert-Butyl)isoxazol-3-yl)-3-(2-(5-hydroxy-4-(piperidin-1-ylmethyl)-1H-indole-2-carbonyl)benzofuran-5-yl)urea] here?
Its value is “Soluble”.

What about the solubility [2, 4] of the same compound?
The solubility was 2200 µg/mL (≈ 3960 µM).

And the solubility [2, 5]?
Its solubility is < 100 µg/mL.

With `CC(C)(C)c1cc(NC(=O)Nc2ccc3oc(C(=O)c4cc5c(CN6CCOCC6)c(OC(=O)N6CCC(N7CCCCC7)CC6)ccc5[nH]4)cc3c2)no1` [Compound 38a, 2-(5-(3-(5-(tert-Butyl)isoxazol-3-yl)ureido)benzofuran-2-carbonyl)-4-(morpholinomethyl)-1H-indol-5-yl[1,4′-bipiperidine]-1′-carboxylate] as the compound, how does the solubility [2, 4] read?
The solubility was 890 µg/mL (≈ 1180 µM).

And the solubility [2, 5]?
Its solubility is < 100 µg/mL.

For `CN1CCN(Cc2c(OC(=O)N3CCC(N4CCCCC4)CC3)ccc3[nH]c(C(=O)c4cc5cc(NC(=O)Nc6cc(C(C)(C)C)on6)ccc5o4)cc23)CC1` [Compound 41c, 2-(5-(3-(5-(tert-Butyl)isoxazol-3-yl)ureido)benzofuran-2-carbonyl)-4-((4-methylpiperazin-1-yl)methyl)-1H-indol-5-yl [1,4′-bipiperidine]-1′-carboxylate Trihydrochloride], which IC50 (human FLT3-ITD; read-out: IC50 FLT3 (ITD); 10 μM ATP; Trihydrochloride) is on record?
The IC50 was 0.5 nM.

With `CN(C)Cc1c(OC(=O)N2CCC(N3CCCCC3)CC2)ccc2[nH]c(C(=O)c3cc4cc(NC(=O)Nc5cc(C(C)(C)C)on5)ccc4o3)cc12` [Compound 42a, 2-(5-(3-(5-(tert-Butyl)isoxazol-3-yl)ureido)benzofuran-2-carbonyl)-4-((dimethylamino)methyl)-1H-indol-5-yl [1,4′-bipiperidine]-1′-carboxylate] as the compound, how does the IC50 (human FLT3-ITD; [6]) read?
The IC50 was 1.23 nM.

For `CC(C)(C)c1cc(NC(=O)Nc2ccc3oc(C(=O)c4cc5c(CN6CCCC6)c(O)ccc5[nH]4)cc3c2)no1` [Compound 32b, 1-(5-(tert-Butyl)isoxazol-3-yl)-3-(2-(5-hydroxy-4-(pyrrolidin-1-ylmethyl)-1H-indole-2-carbonyl)benzofuran-5-yl)urea 2,2,2-trifluoroacetate], which “Solubility Ethanol” value [2, 8] is on record?
Its value is 2400 µg/mL (≈ 4430 µM).

Reference: US20260184702A1, “SYNTHESIS, PHARMACOLOGY AND USE OF NEW WATER-SOLUBLE AND SELECTIVE FMS-LIKE TYROSINE KINASE3 (FLT3) INHIBITORS” (Universität Regensburg, priority 2022, published 2026)
